Test results taken from PubChem BioAssay AID248 (DTP/NCI, 2004).
“And” between values parts separate entries of the source, which are not always exact repeats. Identical values can stand only once. Toxic doses and inconclusive results are not listed. No stated cut-off is given here; in the data, active means T/C of 150% or more; inactive means T/C below 125%.

Tested on: L1210 leukemia ip in BDF1 mice, survival T/C
Assay: NCI In Vivo Anticancer Drug Screen. Data for tumor model L1210 Leukemia (intraperitoneal) in B6D2F1 (BDF1) mice
Conditions: endpoint: mean survival time, higher = longer survival
In short: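 Mice bearing the transplanted tumor received compound or vehicle. Survival of the treated group was divided by that of the vehicle-treated control group to give the ratio.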

[1] = dose: 50.0 mg/kg/injection, schedule: Q01DX001 (ip), vehicle: carboxymethylcellulose (CMC)
[2] = dose: 50.0 mg/kg/injection, schedule: Q01DX009 (ip), vehicle: carboxymethylcellulose (CMC)
[3] = dose: 50.0 mg/kg/injection, schedule: Q04DX003 (ip), vehicle: carboxymethylcellulose (CMC)
[4] = dose: 100.0 mg/kg/injection, schedule: Q01DX001 (ip), vehicle: carboxymethylcellulose (CMC)
[5] = dose: 100.0 mg/kg/injection, schedule: Q01DX009 (ip), vehicle: carboxymethylcellulose (CMC)
[6] = dose: 100.0 mg/kg/injection, schedule: Q04DX002 (ip), vehicle: carboxymethylcellulose (CMC)
[7] = dose: 200.0 mg/kg/injection, schedule: Q04DX002 (ip), vehicle: carboxymethylcellulose (CMC)
[8] = dose: 100.0 mg/kg/injection, schedule: Q01DX009 (ip), vehicle: saline with Tween-80
[9] = dose: 100.0 mg/kg/injection, schedule: Q04DX003 (ip), vehicle: saline with Tween-80
[10] = dose: 200.0 mg/kg/injection, schedule: Q04DX003 (ip), vehicle: saline with Tween-80
[11] = dose: 400.0 mg/kg/injection, schedule: Q04DX003 (ip), vehicle: saline with Tween-80
[12] = dose: 100.0 mg/kg/injection, schedule: Q04DX002 (ip), vehicle: Klucel (hydroxypropylcellulose) (HPC)
[13] = dose: 100.0 mg/kg/injection, schedule: Q04DX003 (ip), vehicle: Klucel (hydroxypropylcellulose) (HPC)
[14] = dose: 200.0 mg/kg/injection, schedule: Q04DX003 (ip), vehicle: Klucel (hydroxypropylcellulose) (HPC)
[15] = dose: 400.0 mg/kg/injection, schedule: Q04DX003 (ip), vehicle: Klucel (hydroxypropylcellulose) (HPC)
[16] = dose: 100.0 mg/kg/injection, schedule: Q04DX002 (ip), vehicle: saline

Measured: T/C

CCCCCCCCN(NC(=O)c1ccccc1)S(=O)(=O)c1ccccc1
inactive: dose: 25.0 mg/kg/injection, schedule: Q01DX001 (ip), vehicle: carboxymethylcellulose (CMC) 100 % of control | dose: 25.0 mg/kg/injection, schedule: Q04DX003 (ip), vehicle: carboxymethylcellulose (CMC) 96 % of control | [1] 100 % of control | [2] 97 % of control and 89 % of control | dose: 50.0 mg/kg/injection, schedule: Q04DX002 (ip), vehicle: carboxymethylcellulose (CMC) 100 % of control and 107 % of control | [3] 96 % of control | [4] 98 % of control | [5] 100 % of control and 105 % of control | [6] 100 % of control and 101 % of control | [7] 102 % of control and 103 % of control

Cc1ccccc1OCCCCCl
inactive: [8] 95 % of control | [9] 97 % of control | dose: 200.0 mg/kg/injection, schedule: Q01DX009 (ip), vehicle: saline with Tween-80 88 % of control | [10] 92 % of control | dose: 400.0 mg/kg/injection, schedule: Q01DX009 (ip), vehicle: saline with Tween-80 89 % of control | [11] 100 % of control

O=C(NC(=S)Nc1cccc(Cl)c1)c1ccc(Cl)cc1Cl
inactive: dose: 100.0 mg/kg/injection, schedule: Q01DX001 (ip), vehicle: Klucel (hydroxypropylcellulose) (HPC) 87 % of control | dose: 100.0 mg/kg/injection, schedule: Q01DX009 (ip), vehicle: Klucel (hydroxypropylcellulose) (HPC) 87 % of control | [12] 115 % of control | [13] 97 % of control | dose: 200.0 mg/kg/injection, schedule: Q01DX009 (ip), vehicle: Klucel (hydroxypropylcellulose) (HPC) 97 % of control and 87 % of control | dose: 200.0 mg/kg/injection, schedule: Q04DX002 (ip), vehicle: Klucel (hydroxypropylcellulose) (HPC) 93 % of control | [14] 103 % of control | dose: 400.0 mg/kg/injection, schedule: Q01DX009 (ip), vehicle: Klucel (hydroxypropylcellulose) (HPC) 87 % of control and 92 % of control | dose: 400.0 mg/kg/injection, schedule: Q04DX002 (ip), vehicle: Klucel (hydroxypropylcellulose) (HPC) 94 % of control | [15] 108 % of control

CSc1nnc(-c2cccs2)s1
inactive: [13] 98 % of control

C[N+](C)(C)CCNC(=O)C12CC3CC(CC(C3)C1)C2
inactive: dose: 25.0 mg/kg/injection, schedule: Q04DX002 (ip), vehicle: saline 89 % of control | dose: 50.0 mg/kg/injection, schedule: Q04DX002 (ip), vehicle: saline 94 % of control | [16] 86 % of control

C#CC(C)(O)C(C)(C)C (stereo not given)
inactive: dose: 100.0 mg/kg/injection, schedule: Q04DX002 (ip), vehicle: saline with Tween-80 91 % of control | dose: 200.0 mg/kg/injection, schedule: Q04DX002 (ip), vehicle: saline with Tween-80 95 % of control | dose: 400.0 mg/kg/injection, schedule: Q04DX002 (ip), vehicle: saline with Tween-80 87 % of control

CCCCCCCCCC(O)CCCC (stereo not given)
inactive: dose: 25.0 mg/kg/injection, schedule: Q01DX009 (ip), vehicle: saline with Tween-80 108 % of control | dose: 50.0 mg/kg/injection, schedule: Q01DX009 (ip), vehicle: saline with Tween-80 97 % of control | [8] 94 % of control and 98 % of control | [9] 98 % of control | [10] 98 % of control | [11] 96 % of control

O=C(Nc1ccc(Cl)cc1)Nc1ncn[nH]1
inactive: dose: 75.0 mg/kg/injection, schedule: Q01DX001 (ip), vehicle: carboxymethylcellulose (CMC) 101 % of control | dose: 150.0 mg/kg/injection, schedule: Q01DX001 (ip), vehicle: carboxymethylcellulose (CMC) 97 % of control | dose: 300.0 mg/kg/injection, schedule: Q01DX001 (ip), vehicle: carboxymethylcellulose (CMC) 95 % of control

c1ccc(C2C(CN3CCCCCC3)C2c2ccccc2)cc1 (stereo not given)
inactive: dose: 12.5 mg/kg/injection, schedule: Q04DX002 (ip), vehicle: Klucel (hydroxypropylcellulose) (HPC) 88 % of control | dose: 25.0 mg/kg/injection, schedule: Q04DX002 (ip), vehicle: Klucel (hydroxypropylcellulose) (HPC) 95 % of control and 98 % of control | dose: 50.0 mg/kg/injection, schedule: Q04DX002 (ip), vehicle: Klucel (hydroxypropylcellulose) (HPC) 98 % of control and 101 % of control and 91 % of control | [12] 92 % of control

CCCCC[C@@H](CN(C)C)[C@H](O)/C=C/c1ccc(Cl)cc1
inactive: dose: 12.5 mg/kg/injection, schedule: Q01DX009 (ip), vehicle: saline 102 % of control | dose: 12.5 mg/kg/injection, schedule: Q04DX003 (ip), vehicle: saline 88 % of control | dose: 25.0 mg/kg/injection, schedule: Q01DX009 (ip), vehicle: saline 98 % of control | dose: 25.0 mg/kg/injection, schedule: Q04DX003 (ip), vehicle: saline 93 % of control | dose: 50.0 mg/kg/injection, schedule: Q01DX009 (ip), vehicle: saline 93 % of control and 97 % of control | dose: 50.0 mg/kg/injection, schedule: Q04DX003 (ip), vehicle: saline 93 % of control | dose: 200.0 mg/kg/injection, schedule: Q04DX003 (ip), vehicle: saline 102 % of control

COc1ccc(NCC(O)CN2CCCCC2)cc1 (stereo not given)
inactive: dose: 100.0 mg/kg/injection, schedule: Q01DX001 (ip), vehicle: saline 94 % of control

CCCCCCCC(=O)NCCCCC
inactive: [1] 98 % of control | [2] 97 % of control and 113 % of control | [3] 103 % of control | [4] 105 % of control | [5] 108 % of control | [6] 94 % of control | dose: 100.0 mg/kg/injection, schedule: Q04DX003 (ip), vehicle: carboxymethylcellulose (CMC) 96 % of control | dose: 200.0 mg/kg/injection, schedule: Q01DX001 (ip), vehicle: carboxymethylcellulose (CMC) 100 % of control | dose: 200.0 mg/kg/injection, schedule: Q01DX009 (ip), vehicle: carboxymethylcellulose (CMC) 104 % of control and 90 % of control | [7] 96 % of control | dose: 200.0 mg/kg/injection, schedule: Q04DX003 (ip), vehicle: carboxymethylcellulose (CMC) 98 % of control | dose: 400.0 mg/kg/injection, schedule: Q04DX002 (ip), vehicle: carboxymethylcellulose (CMC) 96 % of control

COc1ccc(C(=O)/C=C/c2ccc(OC)c(Br)c2)cc1
inactive: [13] 95 % of control | [14] 95 % of control | [15] 94 % of control

O=C1OC(CO)C(OC2OC(CO)C(O)C(O)C2O)C(O)C1O (stereo not given)
inactive: dose: 100.0 mg/kg/injection, schedule: Q01DX009 (ip), vehicle: saline 97 % of control | dose: 200.0 mg/kg/injection, schedule: Q01DX009 (ip), vehicle: saline 98 % of control | dose: 400.0 mg/kg/injection, schedule: Q01DX009 (ip), vehicle: saline 97 % of control

CCC(C)OP(=S)(S)OC(C)CC (stereo not given) (tested in a mixture with another compound)
inactive: [16] 96 % of control | dose: 200.0 mg/kg/injection, schedule: Q04DX002 (ip), vehicle: saline 99 % of control | dose: 400.0 mg/kg/injection, schedule: Q04DX002 (ip), vehicle: saline 96 % of control
